Laboratory results taken from ChEMBL document CHEMBL1629460, “Image-based high-throughput drug screening targeting the intracellular stage of Trypanosoma cruzi, the agent of Chagas' disease” (Antimicrob Agents Chemother, 2010).
pEC50: −log10 of the molar value.

How the values were obtained:
Trypanosoma cruzi [1] = assay: Antitrypanosomal activity against Trypanosoma cruzi PSD-I infected in BESM cells measured after 88 hrs postinfection by HTS assay; type: functional, organism-based
[2] = Cytotoxicity against BESM cells after 88 hrs by HTS assay; type: ADME, cell-based; conditions: Bos taurus
Trypanosoma cruzi [3] = assay: Antitrypanosomal activity against Trypanosoma cruzi Sylvio-X10/7 infected in BESM cells measured after 88 hrs postinfection by HTS assay; type: functional, organism-based; conditions: Sylvio-X10/7, BESM
Trypanosoma cruzi [4] = assay: Antitrypanosomal activity against Trypanosoma cruzi CA-I/72 infected in BESM cells measured after 88 hrs postinfection by HTS assay; type: functional, organism-based; conditions: CA-I/72, BESM
[5] = Selectivity window, ratio of EC50 for BESM cells to EC50 for Trypanosoma cruzi amastigotes infected in BESM cells; parameters: reference not given here
Trypanosoma cruzi [6] = assay: Antitrypanosomal activity against Trypanosoma cruzi amastigotes infected in BESM cells measured after 88 hrs postinfection by HTS assay; type: functional, organism-based

CN1CCN(C(=O)N[C@@H](Cc2ccccc2)C(=O)N[C@H](/C=C/S(=O)(=O)c2ccccc2)CCc2ccccc2)CC1 [K-777]
pEC50 (Trypanosoma cruzi [1]): 5.52 | pEC50 [2]: < 4.70 | pEC50 (Trypanosoma cruzi [3]): 5.52 | pEC50 (Trypanosoma cruzi [4]): 5.38

CC1CS(=O)(=O)CCN1/N=C/c1ccc([N+](=O)[O-])o1 (stereo not given) [NIFURTIMOX]
pEC50 (Trypanosoma cruzi [1]): 5.68 | pEC50 [2]: < 5.00 | pEC50 (Trypanosoma cruzi [3]): 6.15 | pEC50 (Trypanosoma cruzi [4]): 5.92

CC[C@@H]([C@H](C)O)n1ncn(-c2ccc(N3CCN(c4ccc(OC[C@@H]5CO[C@@](Cn6cncn6)(c6ccc(F)cc6F)C5)cc4)CC3)cc2)c1=O [POSACONAZOLE]
pEC50 (Trypanosoma cruzi [1]): 6.89 | pEC50 [2]: < 5.70 | pEC50 (Trypanosoma cruzi [3]): 7.10 | pEC50 (Trypanosoma cruzi [4]): 6.70

CC(=O)O[C@@]12CO[C@@H]1C[C@H](O)[C@@]1(C)C(=O)[C@H](O)C3=C(C)[C@@H](OC(=O)[C@H](O)[C@@H](NC(=O)OC(C)(C)C)c4ccccc4)C[C@@](O)([C@@H](OC(=O)c4ccccc4)[C@H]21)C3(C)C.O.O.O [DOCETAXEL]
Ratio EC50 [5]: >56 | pEC50 [2]: 4.36 | pEC50 (Trypanosoma cruzi [6]): > 6.10
